Data published in ChEMBL document CHEMBL1201862, “PubChem BioAssay data set” (2004).
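Following 48 hours of exposure in 96-well plates, responses at five concentrations were used to interpolate endpoints linearly. GI50 is the concentration that inhibits growth by half.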 Activity calls are given as the source filed them. Rule as the data show it: active = GI50 up to about 1.1 µM and inactive = higher.

How the values were obtained:
Test in all cases: NCI anticancer screen, dose series, 48 h
ACHN = tested on: ACHN
A549 = tested on: A549
SK-OV-3 = tested on: SK-OV-3
HOP-92 = tested on: HOP-92
RPMI-8226 = tested on: RPMI-8226
NCI-H522 = tested on: NCI-H522
COLO 205 = tested on: COLO 205
SF-268 = tested on: SF-268
SK-MEL-2 = tested on: SK-MEL-2
NCI-H226 = tested on: NCI-H226
OVCAR-3 = tested on: OVCAR-3
UO-31 = tested on: UO-31
SK-MEL-28 = tested on: SK-MEL-28
SNB-19 = tested on: SNB-19
SF-295 = tested on: SF-295
RXF 393 = tested on: RXF 393
PC-3 = tested on: PC-3
NCI/ADR-RES = tested on: NCI/ADR-RES
MDA-MB-231 = tested on: MDA-MB-231

Measured: GI50

O=C(NS(=O)(=O)c1ccccc1)C(Cc1ccccc1)C(Cc1ccccc1)C(=O)NS(=O)(=O)c1ccccc1 (stereo not drawn)
inactive: ACHN > 100 µM | A549 > 100 µM | SK-OV-3 > 100 µM | HOP-92 > 100 µM | RPMI-8226 > 100 µM | NCI-H522 > 100 µM | COLO 205 > 100 µM | SF-268 > 100 µM | SK-MEL-2 > 100 µM | NCI-H226 62.4 µM | OVCAR-3 > 100 µM | UO-31 > 100 µM | SK-MEL-28 > 100 µM | SNB-19 > 100 µM | SF-295 > 100 µM | RXF 393 > 100 µM

COc1cc2c(cc1C)NC(=O)/C2=C\c1ccncc1
inactive: ACHN 6.05 µM | A549 15.3 µM | SK-OV-3 3.96 µM | HOP-92 26.1 µM | NCI-H522 2.94 µM | COLO 205 7.19 µM | SF-268 3.83 µM | SK-MEL-2 2.97 µM | OVCAR-3 3.9 µM | UO-31 4.1 µM | SK-MEL-28 11.1 µM | PC-3 6.55 µM | SNB-19 5.2 µM | NCI/ADR-RES 3.58 µM | SF-295 4.99 µM | RXF 393 3.76 µM

COc1cc(C(N)=O)c(OC)c(OC)c1OC
inactive: ACHN > 100 µM | A549 > 100 µM | SK-OV-3 > 100 µM | HOP-92 > 100 µM | RPMI-8226 > 100 µM | NCI-H522 > 100 µM | COLO 205 > 100 µM | SF-268 > 100 µM | SK-MEL-2 > 100 µM | NCI-H226 > 100 µM | OVCAR-3 > 100 µM | UO-31 > 100 µM | SK-MEL-28 > 100 µM | SNB-19 > 100 µM | SF-295 > 100 µM | RXF 393 > 100 µM

Cc1nc2cc3nc4ccccc4c(O)c3cc2s1
inactive: ACHN > 100 µM | A549 > 100 µM | SK-OV-3 > 100 µM | HOP-92 > 100 µM | RPMI-8226 > 100 µM | NCI-H522 > 100 µM | COLO 205 > 100 µM | SF-268 > 100 µM | SK-MEL-2 > 100 µM | NCI-H226 > 100 µM | OVCAR-3 > 100 µM | UO-31 > 100 µM | SNB-19 > 100 µM | SF-295 > 100 µM | RXF 393 > 100 µM

CN(C)CC1CCCC/C1=N/O (stereo not drawn)
inactive: ACHN > 100 µM | A549 > 100 µM | SK-OV-3 > 100 µM | HOP-92 > 100 µM | RPMI-8226 > 100 µM | NCI-H522 > 100 µM | COLO 205 > 100 µM | SF-268 > 100 µM | SK-MEL-2 > 100 µM | NCI-H226 > 100 µM | OVCAR-3 > 100 µM | UO-31 > 100 µM | SK-MEL-28 > 100 µM | SF-295 > 100 µM | RXF 393 > 100 µM

N#Cc1nnc2ccccc2c1N
inactive: MDA-MB-231 > 100 µM | ACHN > 100 µM | A549 > 100 µM | HOP-92 > 100 µM | RPMI-8226 > 100 µM | COLO 205 > 100 µM | SF-268 > 100 µM | SK-MEL-2 > 100 µM | NCI-H226 > 100 µM | OVCAR-3 2.26 µM | UO-31 > 100 µM | SK-MEL-28 > 100 µM | PC-3 > 100 µM | SNB-19 > 100 µM | NCI/ADR-RES > 100 µM

NC(=S)N/N=C1\C(=O)N(c2cccc([N+](=O)[O-])c2)C(=O)C1C(=O)Nc1cccc([N+](=O)[O-])c1 (stereo not drawn)
inactive: ACHN > 100 µM | A549 > 100 µM | SK-OV-3 > 100 µM | HOP-92 > 100 µM | RPMI-8226 > 100 µM | NCI-H522 > 100 µM | COLO 205 > 100 µM | SF-268 > 100 µM | SK-MEL-2 > 100 µM | NCI-H226 > 100 µM | OVCAR-3 > 100 µM | UO-31 > 100 µM | SK-MEL-28 > 100 µM | SNB-19 > 100 µM | SF-295 > 100 µM | RXF 393 > 100 µM

COC(=O)C(CC(=O)Nc1ccc(C)cc1)C(=O)C(=O)Nc1c(C(C)C)cccc1C(C)C (stereo not drawn)
inactive: ACHN > 100 µM | A549 > 100 µM | SK-OV-3 > 100 µM | HOP-92 > 100 µM | RPMI-8226 > 100 µM | NCI-H522 > 100 µM | COLO 205 > 100 µM | SF-268 > 100 µM | SK-MEL-2 > 100 µM | NCI-H226 > 100 µM | UO-31 > 100 µM | SK-MEL-28 > 100 µM | SNB-19 > 100 µM | RXF 393 > 100 µM

O=C(Cc1nc2ccccc2c(=O)n1-c1ccccc1Cl)c1ccncc1
inactive: ACHN > 100 µM | A549 > 100 µM | SK-OV-3 > 100 µM | HOP-92 > 100 µM | NCI-H522 > 100 µM | COLO 205 > 100 µM | SF-268 > 100 µM | SK-MEL-2 > 100 µM | NCI-H226 > 100 µM | OVCAR-3 > 100 µM | UO-31 > 100 µM | SK-MEL-28 > 100 µM | SNB-19 > 100 µM | SF-295 > 100 µM | RXF 393 > 100 µM
